Measured values: paper PMC13198257, “An aerosolized dual-action autotaxin inhibitor-PPARγ agonist for the treatment of pulmonary fibrosis” (Cell Reports Medicine, 2026)

System: lung gene expression
Experiment: RNA sequencing of lung tissue (BLM/EL244 vs BLM)
Assay type: in vivo, mouse
Method: RNA quality was assessed using an Agilent TapeStation 4150 with the High Sensitivity […] ScreenTape (Agilent), according to the manufacturer’s protocols. For library preparation, the QuantSeq 3’mRNA-Seq Library Prep Kit (Lexogen) was used according to manufacturer’s instructions. Briefly, 500 ng of RNA from each sample was used for first-strand synthesis, followed by RNA template removal, and second-strand synthesis initiated by random primers. In-line barcodes were introduced at this step, and this was followed by magnetic bead-based purification. The resulting libraries were amplified for 15 cycles and re-purified, with quantity and quality assessed on a Qubit 4 Fluorometer with the Invitrogen Qubit dsDNA HS Assay and an Agilent Tapestation 4150 with the High Sensitivity D1000 assay kit, respectively. The quantified libraries were pooled equimolarly; 50ng of total library mix was used for Adapter Conversion PCR Amplification using the Universal Library Conversion Kit (App-A), Version: V1.0 (MGI Tech Co., Ltd.), according to the manufacturer’s instructions.
The quantity and quality of the purified adapter conversion PCR (AC-PCR) product were evaluated on a Qubit 4 Fluorometer with the Invitrogen Qubit dsDNA HS Assay and on an Agilent Tapestation 4150 with the High Sensitivity D1000 assay kit, respectively. This was followed by DNA denaturation, Single-Strand Circularisation, Enzymatic Digestion, Enzymatic Digestion Product Cleanup and Quality Control steps on 1 pmol of AC-PCR product, according to the Universal Library Conversion Kit (App-A) User Manual (Version: A3).
Finally, 60 fmol of ssCirDNA were used for DNB preparation and sequencing on a DNBSEQ-G400 platform at the BSRC Alexander Fleming Genomics Facility, using a G400 App-A FCS SE100 High-throughput Sequencing Set (MGI Tech Co., Ltd.), according to the manufacturer’s instructions.
Alignment of the FASTQ files was performed against the mouse genome build mm10 using a custom Bash script.[143] Read counting on the 3′ UTRs and differential expression analysis were conducted using the metaseqR2 bioconductor package.[144] Genes corresponding to the following biotypes were excluded: polymorphic_pseudogene, processed_transcript, pseudogene, IG_V_pseudogene, misc_RNA, IG_C_gene, IG_J_gene, IG_D_gene, IG_LV_gene, TR_V_gene, TR_V_pseudogene, TEC, and processed_pseudogene. Gene counts were normalized with DESEQ[145] through metaseqR2. Genes with more than 10 counts in at least 50% of the samples were kept for further processing. For differential expression analysis, the PANDORA algorithm[146] was used to estimate a meta p-value integrating the results from the DESEQ, DESEQ2,[147] edgeR,[148] limma,[149] NBPSeq,[150] and NOISeq[151] algorithms. All additional parameters were set to default values.
Pathway enrichment analysis was performed for the Gene Ontology Biological process (BP) and Molecular Function (MF) terms through GeneCodis 4.[152] The volcano plots, scatterplots, Venn diagrams, and dot plots were generated using the ggplot2 Bioconductor package.

Structure (SMILES): O=C1NC(=O)C(Cc2ccc(OCCC3CCN(C(=O)OCc4cc(Cl)cc(Cl)c4)CC3)cc2)S1 (stereo not shown) [EL244, 3,5-dichlorobenzyl 4-(2-(4-((2,4-dioxothiazolidin-5-yl)methyl)phenoxy)ethyl)piperidine-1-carboxylate]
- Ear1 log2 nFC BLM/EL244 vs BLM (DEG Ear1, nFC: normalised fold change): 1.11
- Ednrb log2 nFC BLM/EL244 vs BLM (DEG Ednrb, nFC: normalised fold change): 0.97
- Elmod1 log2 nFC BLM/EL244 vs BLM (DEG Elmod1, nFC: normalised fold change): 0.89
- Eml5 log2 nFC BLM/EL244 vs BLM (DEG Eml5, nFC: normalised fold change): 1.41
- Eng log2 nFC BLM/EL244 vs BLM (DEG Eng, nFC: normalised fold change): 0.81
- Errfi1 log2 nFC BLM/EL244 vs BLM (DEG Errfi1, nFC: normalised fold change): 0.95
- Esm1 log2 nFC BLM/EL244 vs BLM (DEG Esm1, nFC: normalised fold change): 1.28
- Fabp3 log2 nFC BLM/EL244 vs BLM (DEG Fabp3, nFC: normalised fold change): 0.98
- Fabp12 log2 nFC BLM/EL244 vs BLM (DEG Fabp12, nFC: normalised fold change): 1.43
- Faim2 log2 nFC BLM/EL244 vs BLM (DEG Faim2, nFC: normalised fold change): 2.03
- Fam71f2 log2 nFC BLM/EL244 vs BLM (DEG Fam71f2, nFC: normalised fold change): 1.96
- log2 nFC BLM/EL244 vs BLM (DEG Fcgr1): -1.30
- log2 nFC BLM/EL244 vs BLM (DEG Fcrls): -1.35
- log2 nFC BLM/EL244 vs BLM (DEG Fgf13): -1.40
- log2 nFC BLM/EL244 vs BLM (DEG Fkbp10): -1.25
- Fmo1 log2 nFC BLM/EL244 vs BLM (DEG Fmo1, nFC: normalised fold change): 0.86
- Fmo2 log2 nFC BLM/EL244 vs BLM (DEG Fmo2, nFC: normalised fold change): 1.00
- Fosb log2 nFC BLM/EL244 vs BLM (DEG Fosb, nFC: normalised fold change): 2.38
- log2 nFC BLM/EL244 vs BLM (DEG Foxm1): -1.56
- Fxyd1 log2 nFC BLM/EL244 vs BLM (DEG Fxyd1, nFC: normalised fold change): 0.80
- Fzd4 log2 nFC BLM/EL244 vs BLM (DEG Fzd4, nFC: normalised fold change): 0.69
- Galnt15 log2 nFC BLM/EL244 vs BLM (DEG Galnt15, nFC: normalised fold change): 0.89
- log2 nFC BLM/EL244 vs BLM (DEG Gas2l3): -1.32
- Ggt1 log2 nFC BLM/EL244 vs BLM (DEG Ggt1, nFC: normalised fold change): 1.91
- log2 nFC BLM/EL244 vs BLM (DEG Gins2): -1.57
- Gm867 log2 nFC BLM/EL244 vs BLM (DEG Gm867, nFC: normalised fold change): 2.18
- Gm4956 log2 nFC BLM/EL244 vs BLM (DEG Gm4956, nFC: normalised fold change): 1.08
- Gm9780 log2 nFC BLM/EL244 vs BLM (DEG Gm9780, nFC: normalised fold change): 2.06
- Gm14964 log2 nFC BLM/EL244 vs BLM (DEG Gm14964, nFC: normalised fold change): 1.87
- Gm20186 log2 nFC BLM/EL244 vs BLM (DEG Gm20186, nFC: normalised fold change): 1.31
- Gm26236 log2 nFC BLM/EL244 vs BLM (DEG Gm26236, nFC: normalised fold change): 1.03
- Gm42722 log2 nFC BLM/EL244 vs BLM (DEG Gm42722, nFC: normalised fold change): 1.79
- Gm47291 log2 nFC BLM/EL244 vs BLM (DEG Gm47291, nFC: normalised fold change): 0.98
- Gm49353 log2 nFC BLM/EL244 vs BLM (DEG Gm49353, nFC: normalised fold change): 2.21
- Gm49391 log2 nFC BLM/EL244 vs BLM (DEG Gm49391, nFC: normalised fold change): 0.96
- Gnao1 log2 nFC BLM/EL244 vs BLM (DEG Gnao1, nFC: normalised fold change): 0.85
- Gnmt log2 nFC BLM/EL244 vs BLM (DEG Gnmt, nFC: normalised fold change): 1.14
- Gpm6a log2 nFC BLM/EL244 vs BLM (DEG Gpm6a, nFC: normalised fold change): 0.83
- Gpr155 log2 nFC BLM/EL244 vs BLM (DEG Gpr155, nFC: normalised fold change): 0.76
- Gprasp1 log2 nFC BLM/EL244 vs BLM (DEG Gprasp1, nFC: normalised fold change): 0.72
- Gpt log2 nFC BLM/EL244 vs BLM (DEG Gpt, nFC: normalised fold change): 0.73
- Gria1 log2 nFC BLM/EL244 vs BLM (DEG Gria1, nFC: normalised fold change): 1.61
- Gsn log2 nFC BLM/EL244 vs BLM (DEG Gsn, nFC: normalised fold change): 1.06
- Gsta3 log2 nFC BLM/EL244 vs BLM (DEG Gsta3, nFC: normalised fold change): 1.10
- Gstm1 log2 nFC BLM/EL244 vs BLM (DEG Gstm1, nFC: normalised fold change): 0.75
- log2 nFC BLM/EL244 vs BLM (DEG Gtse1): -1.49
- log2 nFC BLM/EL244 vs BLM (DEG Gxylt2): -1.47
- Gzma log2 nFC BLM/EL244 vs BLM (DEG Gzma, nFC: normalised fold change): 1.70
- log2 nFC BLM/EL244 vs BLM (DEG H2ac11): -1.45
- log2 nFC BLM/EL244 vs BLM (DEG H2ac12): -1.44
- Hba-a1 log2 nFC BLM/EL244 vs BLM (DEG Hba-a1, nFC: normalised fold change): 1.21
- Hba-a2 log2 nFC BLM/EL244 vs BLM (DEG Hba-a2, nFC: normalised fold change): 1.14
- Hbb-bs log2 nFC BLM/EL244 vs BLM (DEG Hbb-bs, nFC: normalised fold change): 1.10
- Hbb-bt log2 nFC BLM/EL244 vs BLM (DEG Hbb-bt, nFC: normalised fold change): 1.09
- log2 nFC BLM/EL244 vs BLM (DEG Hells): -1.30
- Hhatl log2 nFC BLM/EL244 vs BLM (DEG Hhatl, nFC: normalised fold change): 2.05
- Hlf log2 nFC BLM/EL244 vs BLM (DEG Hlf, nFC: normalised fold change): 0.89
- Igf1r log2 nFC BLM/EL244 vs BLM (DEG Igf1r, nFC: normalised fold change): 0.70
